Experimental data taken from PubChem BioAssay (NCI).
Where “and” joins values, the source holds several entries; their conditions need not be identical. Identical values can stand only once.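 1) Cells in 96-well plates. 2) Compound, 48 h, 5 concentrations. 3) Linear interpolation between surrounding doses. 4) Unreached endpoint = highest concentration. Here, GI50 denotes the concentration required for 50% inhibition of growth. The concentration for full growth arrest is given as TGI.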

Experiments:
Test in all cases: inhibition of tumour cell growth, NCI panel, 48 h
786-0 renal = test system: 786-0 renal
BT-549 breast = test system: BT-549 breast
CCRF-CEM leukemia = test system: CCRF-CEM leukemia
HOP-92 NSCLC = test system: HOP-92 NSCLC
MDA-MB-435 = test system: MDA-MB-435
NCI-H23 lung = test system: NCI-H23 lung
RXF 393 renal = test system: RXF 393 renal
SF-539 CNS = test system: SF-539 CNS
SW-620 colon = test system: SW-620 colon
TK-10 renal = test system: TK-10 renal

## COC(=O)[C@H]1CCCN1C(=O)[C@H]1CCCN1C(=O)[C@H](Cc1c[nH]c2ccccc12)NC(=S)Nc1cc(C(F)(F)F)cc(C(F)(F)F)c1
786-0 renal
  GI50: 13.8 µM
  TGI: 83 µM
BT-549 breast
  GI50: 8.74 µM
  TGI: 46 µM
CCRF-CEM leukemia
  GI50: 7.23 µM
  TGI: > 100 µM
HOP-92 NSCLC
  GI50: 1.7 µM
  TGI: 6.97 µM
MDA-MB-435
  GI50: 5.6 µM
  TGI: > 100 µM
NCI-H23 lung
  GI50: 7.22 µM
  TGI: > 100 µM
RXF 393 renal
  GI50: 1.84 µM
  TGI: 4.71 µM
SF-539 CNS
  GI50: 3.93 µM
  TGI: 30.4 µM
SW-620 colon
  GI50: 9.18 µM
  TGI: > 100 µM
TK-10 renal
  GI50: 12.7 µM
  TGI: > 100 µM

## C=C1C(=O)OC2/C=C(/C)C(OC(C)=O)C/C=C(\C)C(OC(=O)C3(C)OC3C)C(O)C12 (centres undefined)
786-0 renal
  TGI: > 100 µM
BT-549 breast
  TGI: > 100 µM
CCRF-CEM leukemia
  TGI: > 100 µM
HOP-92 NSCLC
  TGI: > 100 µM
MDA-MB-435
  TGI: > 100 µM
NCI-H23 lung
  TGI: > 100 µM
RXF 393 renal
  TGI: > 100 µM
SF-539 CNS
  TGI: > 100 µM
SW-620 colon
  TGI: > 100 µM
TK-10 renal
  TGI: > 100 µM

## O=C(CN1C(=O)S/C(=C\C(Cl)=C\c2ccccc2)C1=O)NC1C=CS(=O)(=O)C1 (centres undefined)
786-0 renal
  GI50: 1.8 µM
  TGI: 4.37 µM
BT-549 breast
  GI50: 1.75 µM
  TGI: 4.78 µM
CCRF-CEM leukemia
  GI50: 0.327 µM
  TGI: > 100 µM
HOP-92 NSCLC
  GI50: 1.67 µM
  TGI: 5.75 µM
MDA-MB-435
  GI50: 1.55 µM
  TGI: 3.41 µM
NCI-H23 lung
  GI50: 2.09 µM
  TGI: 7.17 µM
RXF 393 renal
  GI50: 0.849 µM
  TGI: 2.18 µM
SF-539 CNS
  GI50: 2 µM
  TGI: 4.76 µM
SW-620 colon
  GI50: 0.553 µM
  TGI: 2.86 µM
TK-10 renal
  GI50: 2.08 µM
  TGI: 6.61 µM

## CCN(CC)Cc1cc2[nH]c3c4ccc(Cl)cc4ncc3c2cc1OC
786-0 renal
  GI50: 2.2 µM and 2.59 µM
  TGI: 4.82 µM and 5.61 µM
BT-549 breast
  GI50: 13.7 µM and 16 µM
  TGI: 27.2 µM and 29.6 µM
CCRF-CEM leukemia
  GI50: 2.52 µM and 1.8 µM
  TGI: > 19.7 µM and 4.57 µM
HOP-92 NSCLC
  GI50: 5.14 µM
  TGI: 22.1 µM
MDA-MB-435
  GI50: 1.78 µM and 1.75 µM
  TGI: 3.55 µM and 3.4 µM
NCI-H23 lung
  GI50: 6.07 µM and 3.33 µM
  TGI: 20.3 µM and 14.4 µM
RXF 393 renal
  GI50: 2.07 µM and 1.68 µM
  TGI: 4.25 µM and 3.27 µM
SF-539 CNS
  GI50: 1.61 µM and 1.78 µM
  TGI: 2.97 µM and 3.25 µM
SW-620 colon
  GI50: 2.3 µM and 1.91 µM
  TGI: 6.72 µM and 4.44 µM
TK-10 renal
  GI50: 5.4 µM and 2.62 µM
  TGI: 11.2 µM and 5.62 µM

## O=C1/C=C/[C@@H](O)[C@@H]2C[C@@H](O)C[C@H]2/C=C/CCC[C@H](C(F)(F)F)O1
786-0 renal
  GI50: 0.126 µM
  TGI: 0.469 µM
BT-549 breast
  GI50: 0.211 µM
  TGI: 10.8 µM
CCRF-CEM leukemia
  GI50: 0.205 µM
  TGI: 0.916 µM
HOP-92 NSCLC
  GI50: 0.126 µM
  TGI: 0.568 µM
MDA-MB-435
  GI50: 0.36 µM
  TGI: > 44.5 µM
NCI-H23 lung
  GI50: 0.285 µM
  TGI: 4.17 µM
RXF 393 renal
  GI50: 0.0864 µM
  TGI: 38.7 µM
SF-539 CNS
  GI50: 0.504 µM
  TGI: > 100 µM
SW-620 colon
  GI50: 0.142 µM
  TGI: 0.331 µM
TK-10 renal
  GI50: 0.0888 µM
  TGI: 0.78 µM

## CCN1CCN(C(=O)[C@]23CCC(C)(C)C[C@@H]2C2=CC[C@@H]4[C@@]5(C)C/C(=C/c6ccncc6)C(=O)C(C)(C)[C@@H]5CC[C@@]4(C)[C@]2(C)CC3)CC1
786-0 renal
  GI50: 1.68 µM
  TGI: 3.15 µM
BT-549 breast
  GI50: 1.53 µM
  TGI: 3.04 µM
CCRF-CEM leukemia
  GI50: 1.7 µM
  TGI: 5.32 µM
HOP-92 NSCLC
  GI50: 1.07 µM
  TGI: 2.39 µM
MDA-MB-435
  GI50: 1.41 µM
  TGI: 2.81 µM
NCI-H23 lung
  GI50: 1.63 µM
  TGI: 3.16 µM
RXF 393 renal
  GI50: 1.45 µM
  TGI: 2.81 µM
SF-539 CNS
  GI50: 1.64 µM
  TGI: 3.04 µM
SW-620 colon
  GI50: 1.48 µM
  TGI: 3.14 µM
TK-10 renal
  GI50: 1.95 µM
  TGI: 3.47 µM

## N=c1c2c(=N)n3c(nc2nc2n1-c1ccccc1Sc1ccccc1-2)sc1cc(Cl)ccc13
786-0 renal
  GI50: 3.64 µM
  TGI: > 100 µM
BT-549 breast
  GI50: 3.97 µM
  TGI: > 100 µM
CCRF-CEM leukemia
  GI50: 2.59 µM
  TGI: > 100 µM
HOP-92 NSCLC
  GI50: 0.517 µM
  TGI: 4.15 µM
MDA-MB-435
  GI50: 3.11 µM
  TGI: > 100 µM
NCI-H23 lung
  GI50: 1.15 µM
  TGI: 7.02 µM
RXF 393 renal
  GI50: 2.46 µM
  TGI: 9.52 µM
SF-539 CNS
  GI50: 5.07 µM
  TGI: 30.6 µM
SW-620 colon
  GI50: 3.14 µM
  TGI: 71.1 µM
TK-10 renal
  GI50: 3.64 µM
  TGI: > 100 µM

## CO[C@H]1C[C@@H]2CC[C@@H](C)[C@@](O)(O2)C(=O)C(=O)N2CCCC[C@H]2C(=O)O[C@H]([C@H](C)C[C@@H]2CC[C@@H](OCCO)[C@H](OC)C2)CC(=O)[C@H](C)C=C(C)[C@@H](O)[C@@H](OC)C(=O)[C@H](C)C[C@H](C)/C=C/C=C/C=C1C
786-0 renal
  GI50: < 0.01 µM
  TGI: 20.7 µM
BT-549 breast
  GI50: < 0.01 µM
CCRF-CEM leukemia
  TGI: > 43.1 µM
HOP-92 NSCLC
  GI50: 0.0199 µM
  TGI: 20 µM
MDA-MB-435
  GI50: < 0.0332 µM
  TGI: 22.1 µM
NCI-H23 lung
  TGI: 22.7 µM
RXF 393 renal
  GI50: < 0.01 µM
SF-539 CNS
  GI50: < 0.01 µM
  TGI: 15.3 µM
SW-620 colon
  GI50: 8.49 µM
  TGI: 23.9 µM
TK-10 renal
  GI50: < 0.01 µM
  TGI: 19.1 µM

## CC(=O)[O][Hg][c]1c(C)c(C)cc(C)c1C
786-0 renal
  GI50: 1.76 µM
  TGI: 3.28 µM
BT-549 breast
  GI50: 1.86 µM
  TGI: 3.79 µM
CCRF-CEM leukemia
  GI50: 0.39 µM
  TGI: 13.5 µM
HOP-92 NSCLC
  GI50: 0.128 µM
  TGI: 0.705 µM
MDA-MB-435
  GI50: 1.27 µM
  TGI: 2.74 µM
NCI-H23 lung
  GI50: 1.03 µM
  TGI: 3.32 µM
RXF 393 renal
  GI50: 0.482 µM
  TGI: 1.24 µM
SF-539 CNS
  GI50: 1.51 µM
  TGI: 3.11 µM
SW-620 colon
  GI50: 0.732 µM
  TGI: 2.31 µM
TK-10 renal
  GI50: 1.86 µM
  TGI: 3.84 µM

## CC(=O)c1c(C)[nH]c(-c2nc3ccc(N4CCN(C)CC4)cc3[nH]2)c1-c1ccccc1
786-0 renal
  GI50: 1.71 µM
  TGI: 20.5 µM
BT-549 breast
  GI50: 8.81 µM
  TGI: 29.8 µM
CCRF-CEM leukemia
  GI50: 4.69 µM
  TGI: > 100 µM
HOP-92 NSCLC
  GI50: 0.585 µM
  TGI: 24.5 µM
MDA-MB-435
  GI50: 0.505 µM
  TGI: 12.9 µM
NCI-H23 lung
  GI50: 3.02 µM
  TGI: 39.3 µM
RXF 393 renal
  GI50: 2.84 µM
  TGI: 16.1 µM
SF-539 CNS
  GI50: 1.47 µM
  TGI: 17.5 µM
SW-620 colon
  GI50: 3.82 µM
  TGI: 24.8 µM
TK-10 renal
  GI50: 0.604 µM
  TGI: 27.2 µM

## O=[N+]([O-])c1cccc(C2CC(c3ccccc3)=Nc3ccccc3S2)c1 (centres undefined)
786-0 renal
  GI50: 17.3 µM
  TGI: 31.6 µM
BT-549 breast
  GI50: 13.2 µM
  TGI: 26.7 µM
CCRF-CEM leukemia
  GI50: 5.91 µM
  TGI: > 100 µM
HOP-92 NSCLC
  GI50: 14.3 µM
  TGI: 45.6 µM
MDA-MB-435
  GI50: 15.7 µM
  TGI: 37.7 µM
NCI-H23 lung
  GI50: 17.9 µM
  TGI: 61.8 µM
RXF 393 renal
  GI50: 17.2 µM
  TGI: 36.6 µM
SF-539 CNS
  GI50: 17.2 µM
  TGI: 31.3 µM
SW-620 colon
  GI50: 3.03 µM
  TGI: 12 µM
TK-10 renal
  GI50: 22.1 µM
  TGI: 42.2 µM

## CCCCCCCCCCCCCC[C@@H](O)[C@H]1CC[C@H]([C@H]2CC[C@H]([C@H](O)CCCCCC[C@@H](O)CC3=C[C@H](C)OC3=O)O2)O1
786-0 renal
  GI50: 4.31 µM
  TGI: > 25 µM
BT-549 breast
  GI50: 1.88 µM
  TGI: 4.86 µM and > 25 µM
CCRF-CEM leukemia
  GI50: 2.06 µM
  TGI: > 25 µM
HOP-92 NSCLC
  GI50: > 25 µM
  TGI: 8.37 µM and > 25 µM
MDA-MB-435
  TGI: > 25 µM
NCI-H23 lung
  TGI: > 25 µM
RXF 393 renal
  GI50: 2.72 µM
  TGI: > 25 µM
SF-539 CNS
  GI50: 2.25 µM
  TGI: 6.85 µM and > 25 µM
SW-620 colon
  GI50: 2.44 µM
  TGI: > 25 µM
TK-10 renal
  GI50: 2.72 µM
  TGI: 8.15 µM and > 25 µM
